Results reported in patent US7964531B2, “3-phenoxy-4-pyridazinol derivatives and herbicidal composition containing the same” (Mitsui Chemicals Agro, Inc., priority 2001, dated 2011).

Columns and labels:
Type in all cases: in vivo
[1] = system: Cyperus serotinus; experiment: Test Example 1: herbicidal effects, paddy-field pot test; details: wettable powder applied 3 days after transplanting, judged after 25 days
How it was run: (§1)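 Paddy soil pots sown with dormancy-broken weed seeds mixed into the top 1 cm, plus germinated Cyperus serotinus tubers and transplanted 2.2-leaf rice seedlings, grown flooded in a greenhouse. Water-diluted wettable powder applied 3 days after transplanting; growth inhibition scored 25 days later on a 0–5 scale (0 = 0–10%, 5 = 91–100%).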

[2] = system: Scirpus joncoides; experiment: as above; details: wettable powder applied 3 days after transplanting, judged after 25 days
How it was run: as §1

[3] = system: annual broad-leaved weeds (Lindernia spp., Rotala indica); experiment: as above; details: wettable powder applied 3 days after transplanting, judged after 25 days
How it was run: as §1

[4] = system: barnyardgrass (Echinochloa oryzicola Vasing.); experiment: as above; details: wettable powder applied 3 days after transplanting, judged after 25 days
How it was run: as §1

[5] = system: transplanted paddy-field rice; experiment: Test Example 1: crop injury against transplanted paddy-field rice; details: wettable powder applied 3 days after transplanting, judged after 25 days
How it was run: as §1

[6] = system: indian mustard (Brassica juncea (L.) Czern. et Coss); experiment: Test Example 2: herbicidal effects (soil treatment); details: dosage 5 kg/a; soil treatment the day after seeding; judged after 21 days
Source text: (§2) Judgment Standard • 0: Growth inhibition rate; 0 to 10% • 1: Growth inhibition rate; 11 to 30% • 2: Growth inhibition rate; 31 to 50% • 3: Growth inhibition rate; 51 to 70% • 4: Growth inhibition rate; 71 to 90% • 5: Growth inhibition rate; 91 to 100%.
(§3) Upland soil was filled in 150 cm^2 pot, and seeds of barnyardgrass and indian mustard (Brassica juncea (L.) Czern. et Coss) were sowed, and grown in a greenhouse. At the next day of seeding, a predetermined chemical dosage of the wettable powder prepared in accordance with Preparation example 1 was diluted in water and applied to soil surface. After 21 days from the treatment, herbicidal effects were judged in accordance with the judgment standard of Test example 1, and the results were shown in Table 3.

[7] = system: barnyardgrass; experiment: as above; details: dosage 5 kg/a; soil treatment the day after seeding; judged after 21 days
Source text: as §2, §3

[8] = system: black nightshade; experiment: Test Example 5: herbicidal effects, upland (soil treatment); details: after 21 days
Protocol: (§4) Upland soil was filled in 150 cm^2 pot, and seeds of barnyardgrass, Cyperus esculentus L., velvetleaf, black nightshade, tall morningglory and corn were sowed, and grown in a greenhouse. At the next day of seeding, a predetermined chemical dosage of the wettable powder prepared in accordance with Preparation example 5 was diluted with water and applied to soil surface. After 21 days from the treatment, herbicidal effects and crop injury against corn were judged according to the following judgment standard, and the results were shown in Tables 6 to 8.
(§5) Judgment Standard • 0: Growth inhibition rate; 0 to 9% • 1: Growth inhibition rate; 10 to 19% • 2: Growth inhibition rate; 20 to 29% • 3: Growth inhibition rate; 30 to 39% • 4: Growth inhibition rate; 40 to 49% • 5: Growth inhibition rate; 50 to 59% • 6: Growth inhibition rate; 60 to 69% • 7: Growth inhibition rate; 70 to 79% • 8: Growth inhibition rate; 80 to 89% • 9: Growth inhibition rate; 90 to 98% • 10: Growth inhibition rate; 99 to 100%.

[9] = system: tall morningglory; experiment: as above; details: after 21 days
Protocol: as §4, §5

[10] = system: velvetleaf; experiment: as above; details: after 21 days
Protocol: as §4, §5

[11] = system: barnyardgrass; experiment: as above; details: after 21 days
Protocol: as §4, §5

[12] = system: transplanted paddy-field rice; experiment: Test Example 4: crop injury against transplanted paddy-field rice; details: no second compound, after 25 days
Protocol: (§6) Paddy filed soil was filled in 1/5000 are Wagner pot, seeds of barnyardgrass (Echinochloa oryzicola Vasing.), Scirpus joncoides and annual broad-leaved weeds (Lindernia spp. and Rotala indica) which are awaken from dormancy were mixed at the surface layer of 1 cm. Also, tubers of Cyperus serotinus, Sagittaria pygmaea and Eleocharis kuroguwai which are awaken from dormancy were planted, and further seedlings of paddy-field rice at 2.2-leaf stage were transplanted and they were grown under the flooded condition in a greenhouse. After 3 days from the transplanting, a predetermined chemical dosage of the wettable powder prepared in accordance with Preparation example 5 was diluted with water, and applied to the pot. After 25 days, herbicidal effects and crop injury against transplanted paddy-field rice were judged according to the following judgment standard, and the results were shown in Table 5. Incidentally, “-” in the table means a composition containing no effective ingredient.
(§7) Judgment Standard • 0: Growth-inhibition rate; 0 to 15% • 1: Growth inhibition rate; 16 to 35% • 2: Growth inhibition rate; 36 to 55% • 3: Growth inhibition rate; 56 to 75% • 4: Growth inhibition rate; […] • 5: Growth inhibition rate; 96 to 100%.

[13] = system: Cyperus serotinus; experiment: Test Example 4: herbicidal effects of mixed wettable powder, paddy-field pot test; details: no second compound, after 25 days
Protocol: as §6, §7

[14] = system: Scirpus joncoides; experiment: as above; details: no second compound, after 25 days
Protocol: as §6, §7

[15] = system: Sagittaria pygmaea; experiment: as above; details: no second compound, after 25 days
Protocol: as §6, §7

[16] = system: Eleocharis kuroguwai; experiment: as above; details: no second compound, after 25 days
Protocol: as §6, §7

[17] = system: annual broad-leaved weeds (Lindernia spp. and Rotala indica); experiment: as above; details: no second compound, after 25 days
Protocol: as §6, §7

[18] = system: barnyardgrass (Echinochloa oryzicola Vasing.); experiment: as above; details: no second compound, after 25 days
Protocol: as §6, §7

Q: Which results are given for Oc1cc(Cl)nnc1Oc1c(Br)ccc2ccoc12 [Example 309]?
A: Herbicidal effects Cyperus serotinus ([1]; chemical dosage 10 g/a): 5 (Growth inhibition rate; 91 to 100%); Herbicidal effects Cyperus serotinus ([1]; chemical dosage 20 g/a): 5 (Growth inhibition rate; 91 to 100%); Herbicidal effects Scirpus joncoides ([2]; chemical dosage 10 g/a): 5 (Growth inhibition rate; 91 to 100%); Herbicidal effects Scirpus joncoides ([2]; chemical dosage 20 g/a): 5 (Growth inhibition rate; 91 to 100%); Herbicidal effects Broad leaf ([3]; chemical dosage 10 g/a): 5 (Growth inhibition rate; 91 to 100%); Herbicidal effects Broad leaf ([3]; chemical dosage 20 g/a): 5 (Growth inhibition rate; 91 to 100%); Herbicidal effects Barnyard grass ([4]; chemical dosage 10 g/a): 4 (Growth inhibition rate; 71 to 90%); Herbicidal effects Barnyard grass ([4]; chemical dosage 20 g/a): 5 (Growth inhibition rate; 91 to 100%); Crop injury against transplanted rice ([5]; chemical dosage 10 g/a): 2 (Growth inhibition rate; 31 to 50%); Crop injury against transplanted rice ([5]; chemical dosage 20 g/a): 5 (Growth inhibition rate; 91 to 100%); Herbicidal effects indian mustard [6]: 5 (Growth inhibition rate; 91 to 100%); Herbicidal effects Barnyard-grass [7]: 5 (Growth inhibition rate; 91 to 100%)

Q: For CS(=O)(=O)c1cc(C(F)(F)F)ccc1C(=O)c1cnoc1C1CC1 [Compound D, 5-cyclopropyl-1,2-oxazol-4-yl α,α,α-trifluoro-2-mesyl-p-tolyl ketone], which “Herbicidal effects Black Nightshade” value ([8]; D alone 6.3 g/ha) is on record?
A: 5 (Growth inhibition rate; 50 to 59%)

Q: And the “Herbicidal effects Black Nightshade” value ([8]; D alone 12.5 g/ha)?
A: 9 (Growth inhibition rate; 90 to 98%)

Q: And the “Herbicidal effects Black Nightshade” value ([8]; D alone 25 g/ha)?
A: 9 (Growth inhibition rate; 90 to 98%)

Q: What about the “Herbicidal effects Tall Morningglory” value ([9]; D alone 6.3 g/ha) of the same compound?
A: 2 (Growth inhibition rate; 20 to 29%)

Q: What about the “Herbicidal effects Tall Morningglory” value ([9]; D alone 12.5 g/ha) of the same compound?
A: 0 (Growth inhibition rate; 0 to 9%)

Q: And the “Herbicidal effects Tall Morningglory” value ([9]; D alone 25 g/ha)?
A: 5 (Growth inhibition rate; 50 to 59%)

Q: And the “Herbicidal effects Velvetleaf” value ([10]; D alone 6.3 g/ha)?
A: 6 (Growth inhibition rate; 60 to 69%)

Q: What about the “Herbicidal effects Velvetleaf” value ([10]; D alone 12.5 g/ha) of the same compound?
A: 7 (Growth inhibition rate; 70 to 79%)

Q: And the “Herbicidal effects Velvetleaf” value ([10]; D alone 25 g/ha)?
A: 9 (Growth inhibition rate; 90 to 98%)

Q: What about the “Herbicidal effects Barnyard grass” value ([11]; D alone 6.3 g/ha) of the same compound?
A: 3 (Growth inhibition rate; 30 to 39%)

Q: What about the “Herbicidal effects Barnyard grass” value ([11]; D alone 12.5 g/ha) of the same compound?
A: 10 (Growth inhibition rate; 99 to 100%)

Q: What about the “Herbicidal effects Barnyard grass” value ([11]; D alone 25 g/ha) of the same compound?
A: 10 (Growth inhibition rate; 99 to 100%)

Q: Which “Herbicidal effects Cyperus serotinus” value ([1]; chemical dosage 12.5 g/a) does the source give for Cc1ccccc1Oc1nnc(Cl)cc1O [Example 1] here?
A: 5 (Growth inhibition rate; 91 to 100%)

Q: And the “Herbicidal effects Cyperus serotinus” value ([1]; chemical dosage 25 g/a)?
A: 5 (Growth inhibition rate; 91 to 100%)

Q: And the “Herbicidal effects Scirpus joncoides” value ([2]; chemical dosage 12.5 g/a)?
A: 5 (Growth inhibition rate; 91 to 100%)

Q: What about the “Herbicidal effects Scirpus joncoides” value ([2]; chemical dosage 25 g/a) of the same compound?
A: 5 (Growth inhibition rate; 91 to 100%)

Q: What about the “Herbicidal effects Broad leaf” value ([3]; chemical dosage 12.5 g/a) of the same compound?
A: 5 (Growth inhibition rate; 91 to 100%)

Q: What about the “Herbicidal effects Broad leaf” value ([3]; chemical dosage 25 g/a) of the same compound?
A: 5 (Growth inhibition rate; 91 to 100%)

Q: And the “Herbicidal effects Barnyard grass” value ([4]; chemical dosage 12.5 g/a)?
A: 4 (Growth inhibition rate; 71 to 90%)

Q: What about the “Herbicidal effects Barnyard grass” value ([4]; chemical dosage 25 g/a) of the same compound?
A: 5 (Growth inhibition rate; 91 to 100%)

Q: And the “Crop injury against transplanted rice” value ([5]; chemical dosage 12.5 g/a)?
A: 0 (Growth inhibition rate; 0 to 10%)

Q: What about the “Crop injury against transplanted rice” value ([5]; chemical dosage 25 g/a) of the same compound?
A: 0 (Growth inhibition rate; 0 to 10%)

Q: And the “Crop injury against transplanted rice” value ([12]; derivative 5 g/a)?
A: 0 (Growth-inhibition rate; 0 to 15%)

Q: What about the “Crop injury against transplanted rice” value ([12]; derivative 10 g/a) of the same compound?
A: 0 (Growth-inhibition rate; 0 to 15%)

Q: And the “Herbicidal effects Cyperus serotinus” value ([13]; derivative 5 g/a)?
A: 4 (Growth inhibition rate; 7.6 to 95%)

Q: And the “Herbicidal effects Cyperus serotinus” value ([13]; derivative 10 g/a)?
A: 5 (Growth inhibition rate; 96 to 100%)

Q: What about the “Herbicidal effects Scirpus joncoides” value ([14]; derivative 5 g/a) of the same compound?
A: 2 (Growth inhibition rate; 36 to 55%)

Q: And the “Herbicidal effects Scirpus joncoides” value ([14]; derivative 10 g/a)?
A: 4 (Growth inhibition rate; 7.6 to 95%)

Q: And the “Herbicidal effects Sagittaria pygmaea” value ([15]; derivative 5 g/a)?
A: 4 (Growth inhibition rate; 7.6 to 95%)

Q: What about the “Herbicidal effects Sagittaria pygmaea” value ([15]; derivative 10 g/a) of the same compound?
A: 4 (Growth inhibition rate; 7.6 to 95%)

Q: And the “Herbicidal effects Eleocharis kuroguwai” value ([16]; derivative 5 g/a)?
A: 0 (Growth-inhibition rate; 0 to 15%)

Q: And the “Herbicidal effects Eleocharis kuroguwai” value ([16]; derivative 10 g/a)?
A: 0 (Growth-inhibition rate; 0 to 15%)

Q: And the “Herbicidal effects Broad leaf” value ([17]; derivative 5 g/a)?
A: 3 (Growth inhibition rate; 56 to 75%)

Q: What about the “Herbicidal effects Broad leaf” value ([17]; derivative 10 g/a) of the same compound?
A: 4 (Growth inhibition rate; 7.6 to 95%)

Q: And the “Herbicidal effects Barnyard grass” value ([18]; derivative 5 g/a)?
A: 2 (Growth inhibition rate; 36 to 55%)

Q: What about the “Herbicidal effects Barnyard grass” value ([18]; derivative 10 g/a) of the same compound?
A: 4 (Growth inhibition rate; 7.6 to 95%)
